Test results: patent US20220031636A1, “COMPOUNDS THAT ENHANCE THE ACTION OF METFORMIN” (SOCIETE DES PRODUiTS NESTLE S.A., priority 2018, published 2022)
Entries after “also recorded” stand apart in the source; their conditions may differ.

Experiments:
primary hepatocytes = assay: Lipogenesis in primary hepatocytes ([1-14C]-acetate incorporation into fatty acids); type: cell-based; conditions: low/non-saturating concentration, 1 h at 37 C
Procedure: Hepatocyte isolation: The liver was first perfused with 50 ml perfusion buffer (Krebs-Hepes buffer with […] EDTA), followed with 50 ml collagenase A buffer (Krebs-Hepes buffer with 5 mM CaCl2) and 0.5 mg/ml collagenase). After passage through a 100 μm mesh, the cell solution was washed several times with cold media and finally the cell culture pellet was resuspended in culture medium (medium 199 (M199)+GlutaMAX, 100 U/ml penicillin G, and 100 μg/ml streptomycin, 0.1% (wt/vol) BSA, 10% FCS, 10 nM insulin, 200 nM triiodothyronine and 500 nM dexamethasone). Hepatocytes were left to attach (3-4 h) and cultured overnight in M199 supplemented with antibiotics and 100 nM dexamethasone. Cells were used for experiments the following morning.
For lipogenesis measurements in primary hepatocytes, cells were seeded at 600 K cells per well in a 6-well plate overnight. Media was replaced with fresh M199 media alone for 2 hours prior to incubation with varying concentrations of Lusianthridin or compound 1 for 1 h at 37 C, in the presence of [1-^14C]-acetate. The incorporation of [^14C] into fatty acids was determined in the lower organic layer after separation from the aqueous phase.
Lipogenesis is controlled by the AMPK substrate ACC, and phosphorylation and inhibition of ACC by AMPK, leads to a decrease in lipogenesis. Lipogenesis was measured in primary hepatocytes by determining the incorporation of ^14C-labelled acetate into fatty acids.
Lipogenesis was monitored in the presence or absence of a low/non-saturating concentration of Lusianthridin or metformin for 1 h at 37 C. Furthermore, cells were incubated in the presence of both of these compounds.

[1] = target: T1, bacterially-expressed AMPKα2β1γ1 (Homo sapiens, UniProt P54619+P54646+Q9Y478); assay: HTRF-KinEASE kinase assay of phosphorylated AMPK heterotrimer with AMP and fixed concentrations of Lusianthridin; type: biochemical
T1 construct: His; made in house
T1 sequence (P54646 whole entry): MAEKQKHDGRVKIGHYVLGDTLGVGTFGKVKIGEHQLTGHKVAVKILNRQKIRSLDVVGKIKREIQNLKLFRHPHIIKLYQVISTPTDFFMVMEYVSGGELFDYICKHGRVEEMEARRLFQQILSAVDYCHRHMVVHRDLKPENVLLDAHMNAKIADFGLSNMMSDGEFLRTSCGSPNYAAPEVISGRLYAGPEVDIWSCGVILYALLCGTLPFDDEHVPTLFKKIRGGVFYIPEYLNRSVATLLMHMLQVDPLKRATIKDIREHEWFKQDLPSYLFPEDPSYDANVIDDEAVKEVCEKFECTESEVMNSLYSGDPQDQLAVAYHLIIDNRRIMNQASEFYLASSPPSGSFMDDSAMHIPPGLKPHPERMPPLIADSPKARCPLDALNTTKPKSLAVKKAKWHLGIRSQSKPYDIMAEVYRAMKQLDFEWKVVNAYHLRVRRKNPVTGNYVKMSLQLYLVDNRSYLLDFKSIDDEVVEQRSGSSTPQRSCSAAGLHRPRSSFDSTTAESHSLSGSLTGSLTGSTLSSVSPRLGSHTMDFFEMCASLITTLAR
T1 sequence (Q9Y478 whole entry): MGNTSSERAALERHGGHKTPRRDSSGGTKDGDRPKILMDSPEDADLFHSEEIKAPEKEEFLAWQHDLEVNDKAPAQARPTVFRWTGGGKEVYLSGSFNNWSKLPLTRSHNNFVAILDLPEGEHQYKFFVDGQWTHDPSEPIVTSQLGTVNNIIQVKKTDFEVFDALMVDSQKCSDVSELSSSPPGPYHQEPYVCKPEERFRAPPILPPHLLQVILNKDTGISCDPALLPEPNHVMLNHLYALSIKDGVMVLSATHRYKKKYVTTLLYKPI
T1 sequence (P54619 whole entry): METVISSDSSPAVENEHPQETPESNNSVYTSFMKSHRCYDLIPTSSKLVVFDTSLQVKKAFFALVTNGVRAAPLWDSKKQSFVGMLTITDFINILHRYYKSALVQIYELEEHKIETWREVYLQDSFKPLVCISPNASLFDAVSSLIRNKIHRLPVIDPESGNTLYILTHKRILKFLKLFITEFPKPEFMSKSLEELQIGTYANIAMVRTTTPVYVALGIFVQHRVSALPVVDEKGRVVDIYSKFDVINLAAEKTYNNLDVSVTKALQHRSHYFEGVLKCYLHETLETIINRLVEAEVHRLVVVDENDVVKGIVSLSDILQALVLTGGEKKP
Procedure: The AMPK heterotrimers were expressed in bacteria and purified through the His-α subunit by nickel purification, further purified through gel filtration and finally phosphorylated by incubation with CaMKKβ. This phosphorylated AMPK was incubated with varying concentrations of AMP for 30 mins using substrate and reagents from the HTRF-KinEASE Cisbio assay kit (STK S1 Kit). Phosphorylation of the substrate was measured by incubating with donor and acceptor antibodies for 2 h at room temperature as per the manufacturer's protocol (and Coulerie et al., (2016), see below) and phosphorylated peptide detected by performing HTRF.

Row | AMPK activity (HTRF 665 nm/620 nm ratio) ([1]; AMP alone, varying concentrations, 30 mins) | Structure (SMILES) | inhibition of lipogenesis, compound alone (% lipogenesis compared to control untreated cells) (primary hepatocytes) | inhibition of lipogenesis, compound alone (% lipogenesis compared to control untreated cells) (primary hepatocytes; listed as metformin) | activation of AMPK in combination with AMP ([1]; fixed concentrations of Lusianthridin plus varying AMP)
1 | – | CN(C)C(=N)N=C(N)N [Metformin] | inhibition of lipogenesis | able to inhibit lipogenesis | –
2 | – | COc1cc(O)c2c(c1)CCc1cc(O)ccc1-2 [Lusianthridin, 7-Methoxy-9,10-dihydrophenanthrene-2,5-diol] | inhibition of lipogenesis; also recorded: able to inhibit lipogenesis | – | additive activation of AMPK; also recorded: Additive Effect on AMP Activation
3 | dose-dependent increase in AMPK activity | Nc1ncnc2c1ncn2[C@@H]1O[C@H](COP(=O)(O)O)[C@@H](O)[C@H]1O [AMP, reference compound] | – | – | –
